Literature values as cited in article PMC4562162 (CPT: Pharmacometrics & Systems Pharmacology, 2015).

Tested on: CETP

CCC(CC)CC1(C(=O)Nc2ccccc2SC(=O)C(C)C)CCCCC1 [Dalcetrapib]
effect on LDL-C levels: minimal effects on LDL-C levels
